Laboratory results from patent publication US20240335404A1, “SUBSTITUTED ESTERS CONTAINING POLYOLS AND SACCHARIDES FOR TREATING HEPATOTOXICITY AND FATTY LIVER DISEASES” (SINEW PHARMA INC., priority 2015, published 2024).

Key:
[1] = Pro-drug hydrolysis in fresh human whole-blood (in vitro); type: in vitro ADME; conditions: 37° C., up to 24 hrs (FIG. 1)
Protocol: Fresh human whole-blood were used for drug hydrolysis studies. Drug (10 mg, compound F) was dissolved in 1 mL solution (20% methanol). Drug hydrolysis (n=3) was performed in 20 mL of fresh whole-blood aliquots containing 1.0 mg of drug in a 50-mL flask thermostat at 37° C. in a shaking water bath. At time 0, the drug was added, and after various times of incubation, the blood samples were collected at […], 0.75, 1, 2, 4, 6, 12 and 24 hrs. Blood sample were used 1 mL acetonitrile to quench the enzymatic hydrolysis of the drug as samples were obtained. […] The ESI interface was used in the negative-ion mode.
The pro-drug was monitored at a transition of m/z 688.9∂→180.9, Sucralose was monitored at a transition of m/z 395→359; mannitol was monitored at a transition of m/z 452.3→273.3; C6-mannitol was monitored at a transition of m/z 309→101.1. All the compounds were identified by high-resolution mass spectrophotometry and ^13C NMR. The structure of C6-mannitol (formula (2)) is as follows: […]
The hydrolysis of pro-drug in blood was expressed by plotting the percentage of Pro-drug remaining and the percentage of sucralose, mannitol and C6-mannitol increasing versus time after incubation of the pro-drug in blood (FIG. 1).

CYP2E1 = CYP2E1 (Homo sapiens, UniProt P05181); experiment: CYP2E1 inhibitory activity assay in human liver microsomes (CZX to 6-OH-CZX)
Chain of CYP2E1 (P05181 whole entry): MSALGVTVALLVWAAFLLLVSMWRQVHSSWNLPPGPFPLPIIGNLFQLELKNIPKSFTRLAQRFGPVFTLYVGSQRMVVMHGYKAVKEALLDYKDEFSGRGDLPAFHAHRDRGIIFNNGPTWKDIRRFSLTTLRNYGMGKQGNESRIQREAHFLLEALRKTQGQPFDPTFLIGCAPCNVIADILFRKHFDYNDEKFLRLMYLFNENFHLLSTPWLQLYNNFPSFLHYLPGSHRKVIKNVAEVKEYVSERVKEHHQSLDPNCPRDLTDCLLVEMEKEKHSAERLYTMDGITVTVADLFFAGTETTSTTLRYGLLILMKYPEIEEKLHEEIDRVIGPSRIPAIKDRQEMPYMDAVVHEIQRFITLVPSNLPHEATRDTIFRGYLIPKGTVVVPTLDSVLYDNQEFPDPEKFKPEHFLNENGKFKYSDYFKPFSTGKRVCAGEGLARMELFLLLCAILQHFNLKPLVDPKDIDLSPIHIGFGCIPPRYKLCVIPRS
Protocol: After addition of the test sample, the amount of CYP450 isozyme metabolite standard 6-OH-CZX (6-Hydroxy-Chlorzoxazone) is specific used for calculation of the CYP450 isozyme (CYP2E1) inhibition ratio of the test sample by using the amount of 6-OH-CZX of the control group as the baseline.
All samples were tested in triplicate. To determine the percentage inhibition, each test compound was dissolved in 1, 2, 4 μg/mL to three different concentrations. The CYP2E1 activity levels in the presence of the test compounds were compared with the control incubations. The 500-μL reaction mixture, containing 0.5 mg of microsomal protein, was incubated with 320 μM CZX in the presence of 5 mM MgCl2 and 1 mM NADPH in 50 mM phosphate buffer with pH 7.4 at 37° C. for 30 min. The reaction was terminated by ice-cold acetonitrile, and then 4-hydroxyl tolbutamide was added as an internal standard. The organic phase was evaporated to dryness and reconstituted into the mobile phase (methanol:water=1:1) prior to liquid chromatography-tandem mass spectrometry (LC-MS/MS) analysis. An API 3000 triple-quadrupole mass spectrometer equipped with an ion-spray (ESI) source was used to determine 6-OH-CZX in the human liver microsomes. The ESI interface was used in the positive-ion mode. The 6-OH-CZX was monitored at a transition of m/z 284.5→185.9.
The CYP450 isozyme activity levels in the presence of the test compounds were compared with the control incubations.

P450 2E1 inhibitor activity (CYP2E1): effective as P450 2E1 inhibitors | CYP 2E1 inhibition ratio (%) (CYP2E1; 1 μg/mL): 17.7 ± 0.7% | CYP 2E1 inhibition ratio (%) (CYP2E1; 2 μg/mL): 33.3 ± 4.1% | CYP 2E1 inhibition ratio (%) (CYP2E1; 4 μg/mL): 45.7 ± 2.5%
SMILES: O=C(CCCCC(=O)OC[C@@H](O)[C@@H](O)[C@H](O)[C@H](O)CO)OCC1O[C@H](O[C@]2(CCl)OC(CCl)C(O)C2O)C(O)C(O)[C@H]1Cl (stereo in doubt) [Compound F, ((2R,3R,4R,5R,6R)-6-(((2R,5R)-2,5-bis(chloromethyl)-3,4-dihydroxytetrahydrofuran-2-yl)oxy)-3-chloro-4,5-dihydroxytetrahydro-2H-pyran-2-yl)methyl ((2R,3R,4R)-2,3,4,5,6-pentahydroxyhexyl) adipate]
percentage of pro-drug remaining and metabolites formed in blood [1]: turns into its metabolites including sucralose, mannitol and C6-mannitol
